pIC50: −log10 of the molar value.
Experiments:
[1] = In vitro inhibitory activity against bacterial Holo-[acyl-carrier-protein] synthase; parameters: species or system Staphylococcus aureus
Staphylococcus aureus = experiment: Antibacterial activity against Staphylococcus aureus(FDA 209P strain) at a concentration of 5 ug; assay type: functional

- pIC50 [1]: 5.38
SMILES: Cc1cc(=O)n(C)c2c1C(=O)c1c(C)cc(=O)n(C)c1C2=O [DIAZAANTHRAQUINONE]
- Zone of inhibition (Staphylococcus aureus): 12 mm
